The values that follow come from patent publication US8987304B2, “Antituberculous composition comprising oxazole compounds” (priority 2005, dated 2015).

In data set [1] the test system is CYP1A1/2. As to the kind of experiment: ethoxyresorufin deethylation activity in human hepatic microsome. As to the method: (§1) 4-2. Effect of the Oxazole Compound (I) on the Enzymatic Activity of Each Molecular Species of Cytochrome P450 (CYP)
(§2) Basic reaction composition (0.5 ml) was consisting of microsome protein 0.2-1 mg/ml, 100 mM phosphate buffer (pH 7.4), 0.1 mM EDTA, NADPH generation system (2.5 mM β-NADP, 25 mM glucose-6-phosphate, 2 units glucose-6-phosphate dehydrogenase and 10 mM magnesium chloride), with or without each substrate and inhibitor, and the reaction was performed at 37° C. for 10-60 minutes. Each substrate and its concentration used were 7-ethoxyresorufln (0.5 μM), coumarin (2 μM), 7-benzyloxyresorufin (1.5 μM), tolbutamide (400 μM), S-mephenyloin (100 μM), bufuralol (20 μM), chlorzoxazone (100 μM), testosterone (100 μM) and nifedipine (50 μM).
(§3) Generated products after the metabolic response were measured by using high performance liquid chromatography after extraction.

In data set [2] the test system is intracellular parasitic tubercle bacillus (M. tuberculosis H37Rv) in THP-1 cells. In words: Effect on intracellular parasitic tubercle bacillus in THP-1 cells. It counts as cell-based.
In data set [3] the test system is hepatic microsomal enzyme. In words: In vitro metabolism, monkey hepatic microsome. The data set is classed as in vitro ADME. Conditions: 100 μM, microsome protein 1 mg/ml, 37° C., 2 hours. How it is done:
(§4) 4-1. In Vitro Metabolism of Oxazole Compound (I)
(§5) Studies on in vitro metabolism of oxazole compound (I) (compound (A-R)) were performed using hepatic microsomal enzyme of human and various animals (mouse, rat, dog, rabbit and monkey). Human microsome was obtained from Attached Primate Research Institute, HAB Discussion Group (Chiba, Japan). […] The reaction was terminated by adding organic solvent (acetonitrile or ethyl acetate) and generated metabolites were extracted. The extracted metabolites were detected by using high performance liquid chromatography and liquid chromatograph electrospray ionization tandem mass spectrometry to confirm amount of generation.

The test system of data set [4] is hepatic microsomal enzyme. In words: In vitro metabolism, human hepatic microsome. The settings on record: 100 μM, microsome protein 1 mg/ml, 37° C., 2 hours. The data set is classed as in vitro ADME. As to the method:
as §4, §5

The target in data set [5] is CYP2D6 (Homo sapiens, UniProt P10635). In words: bufuralol hydroxylation activity in human hepatic microsome. The settings on record: liver microsomes, pH 7.4, probe bufuralol (20 μM). How it is done:
as §1, §2, §3
(Liver microsomes are vesicles of endoplasmic reticulum, rich in cytochrome P450 enzymes.)

The target of data set [6] is T1, CYP2A6 (Homo sapiens, UniProt P11509).
T1 sequence (P11509 1-494): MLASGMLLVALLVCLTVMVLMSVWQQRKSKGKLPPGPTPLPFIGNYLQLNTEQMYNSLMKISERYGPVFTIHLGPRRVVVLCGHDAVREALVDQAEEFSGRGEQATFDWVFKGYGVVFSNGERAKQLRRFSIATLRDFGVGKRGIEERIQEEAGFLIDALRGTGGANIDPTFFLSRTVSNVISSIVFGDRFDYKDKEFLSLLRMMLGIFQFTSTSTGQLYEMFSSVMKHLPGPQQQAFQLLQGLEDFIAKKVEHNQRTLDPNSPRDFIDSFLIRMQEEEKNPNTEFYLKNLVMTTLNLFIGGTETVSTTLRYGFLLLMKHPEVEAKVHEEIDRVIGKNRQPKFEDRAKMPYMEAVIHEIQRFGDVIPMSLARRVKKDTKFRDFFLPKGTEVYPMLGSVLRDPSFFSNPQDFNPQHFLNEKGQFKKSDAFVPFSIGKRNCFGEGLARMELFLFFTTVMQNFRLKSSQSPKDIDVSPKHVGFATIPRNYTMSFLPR
As to the kind of experiment: coumarin hydroxylation activity in human hepatic microsome. As to the method:
as §1, §2, §3

Data set [7] relates to hepatic microsomal enzyme. As to the kind of experiment: In vitro metabolism, rabbit hepatic microsome. Conditions: 100 μM, microsome protein 1 mg/ml, 37° C., 2 hours. The data set is classed as in vitro ADME. How it is done: as §4, §5
Data set [8] deals with CYP2C8/9. As to the kind of experiment: tolbutamide hydroxylation activity in human hepatic microsome. As to the method: as §1, §2, §3
Data set [9] deals with hepatic microsomal enzyme. In words: In vitro metabolism, rat hepatic microsome. The settings on record: 100 μM, microsome protein 1 mg/ml, 37° C., 2 hours. The data set is classed as in vitro ADME. As to the method: as §4, §5
Data set [10] deals with T2, CYP2B6 (Homo sapiens, UniProt P20813).
T2 sequence (P20813 1-491): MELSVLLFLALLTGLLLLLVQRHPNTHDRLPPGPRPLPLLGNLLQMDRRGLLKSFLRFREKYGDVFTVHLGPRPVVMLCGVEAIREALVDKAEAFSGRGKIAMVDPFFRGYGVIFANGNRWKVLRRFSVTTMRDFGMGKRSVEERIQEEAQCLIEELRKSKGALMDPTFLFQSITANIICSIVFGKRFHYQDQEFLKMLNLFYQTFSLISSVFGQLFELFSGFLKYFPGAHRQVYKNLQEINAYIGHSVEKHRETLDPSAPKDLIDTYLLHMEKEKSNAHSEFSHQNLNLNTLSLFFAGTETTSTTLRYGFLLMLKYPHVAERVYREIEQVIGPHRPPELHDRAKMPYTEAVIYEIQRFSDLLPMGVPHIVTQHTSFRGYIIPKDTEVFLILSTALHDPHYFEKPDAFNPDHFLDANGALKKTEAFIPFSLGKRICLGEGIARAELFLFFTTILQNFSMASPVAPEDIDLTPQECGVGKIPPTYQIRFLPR
As to the kind of experiment: 7-benzyloxyresorufin debenzylation activity in human hepatic microsome. The settings on record: microsomes, pH 7.4. How it is done:
as §1, §2, §3

The test system of data set [11] is Experimental mouse tuberculosis model. In words: In vivo experiments for intermittent administration, experimental mouse tuberculosis model. The settings on record: three times a week, twice a week or once a week; alone or in combination with conventional antituberculous drugs. The source says:
In Vivo Experiments for Intermittent Administration

Data set [12] has as its system hepatic microsomal enzyme. In words: In vitro metabolism, mouse hepatic microsome. Conditions: 100 μM, microsome protein 1 mg/ml, 37° C., 2 hours. The data set is classed as in vitro ADME. How it is done: as §4, §5
Data set [13] has as its system clinical isolates of tubercle bacillus, TBT-9 and TBT-14. As to the kind of experiment: In vitro combined effect: MIC on 7H11 agar plates and FIC index. The settings on record: 37° C., 2 weeks; for MIC: Bacillus, 336 h, each agent alone. The data set is classed as cell-based. How it is done: In Vitro Experiment on the Combined Effect of an Oxazole Compound (I) and Another Agent
A suspension of tubercle bacillus was prepared at about 10^6 CFU/ml (for clinical isolates of tubercle bacillus, TBT-9 and TBT-14). About 10 μl aliquots thereof were inoculated on respective plates by using a multipoint inoculator.

Data set [14] has as its target CYP2C19 (Homo sapiens, UniProt P33261). As to the kind of experiment: S-mephenytoin hydroxylation activity in human hepatic microsome. The settings on record: liver microsomes, pH 7.4, probe S-mephenytoin (100 μM). As to the method:
as §1, §2, §3

The subject of data set [15] is hepatic microsomal enzyme. As to the kind of experiment: In vitro metabolism, dog hepatic microsome. The data set is classed as in vitro ADME. Conditions: 100 μM, microsome protein 1 mg/ml, 37° C., 2 hours. As to the method:
as §4, §5

Data set [16] deals with each CYP enzyme (CYP1A/2, CYP2A6, CYP2B6, CYP2C8/9, CYP2C19, CYP2D6, CYP2E1 and CYP3A4). As to the kind of experiment: Summary: effect on each CYP enzyme activity in human hepatic microsome. The settings on record: up to 100 μM. As to the method:
as §1, §2, §3

Data set [17] has as its target CYP2E1 (Homo sapiens, UniProt P05181). As to the kind of experiment: chlorozoxazone hydroxylation activity in human hepatic microsome. The settings on record: 100 μM; CYP2E1, chlorozoxazone (100 μM). As to the method: as §1, §2, §3
Setting [18] is: human, liver microsomes, pH 7.4, probe coumarin (2 μM), coumarin hydroxylation.
Setting [19] is: combination Compound (A-R) & EB.
Setting [20] is: combination Compound (A-R) & RFP.
The mark [21] stands for this setting: liver microsomes, pH 7.4, probe tolbutamide (400 μM), hydroxylation.

Sequence of CYP2D6 (P10635 whole entry): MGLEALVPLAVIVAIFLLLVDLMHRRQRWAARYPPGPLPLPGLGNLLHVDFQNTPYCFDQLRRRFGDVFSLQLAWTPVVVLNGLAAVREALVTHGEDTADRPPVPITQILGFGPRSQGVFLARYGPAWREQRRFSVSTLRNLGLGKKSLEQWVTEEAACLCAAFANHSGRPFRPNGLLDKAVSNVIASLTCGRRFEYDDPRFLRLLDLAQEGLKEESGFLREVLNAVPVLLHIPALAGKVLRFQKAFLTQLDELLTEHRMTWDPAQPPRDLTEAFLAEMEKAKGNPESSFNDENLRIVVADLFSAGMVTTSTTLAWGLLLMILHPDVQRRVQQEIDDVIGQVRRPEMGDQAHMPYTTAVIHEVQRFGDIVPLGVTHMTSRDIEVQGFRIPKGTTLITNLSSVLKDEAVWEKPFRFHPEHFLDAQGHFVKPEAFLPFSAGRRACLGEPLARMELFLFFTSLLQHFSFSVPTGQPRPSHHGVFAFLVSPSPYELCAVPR
Sequence of CYP2C19 (P33261 whole entry): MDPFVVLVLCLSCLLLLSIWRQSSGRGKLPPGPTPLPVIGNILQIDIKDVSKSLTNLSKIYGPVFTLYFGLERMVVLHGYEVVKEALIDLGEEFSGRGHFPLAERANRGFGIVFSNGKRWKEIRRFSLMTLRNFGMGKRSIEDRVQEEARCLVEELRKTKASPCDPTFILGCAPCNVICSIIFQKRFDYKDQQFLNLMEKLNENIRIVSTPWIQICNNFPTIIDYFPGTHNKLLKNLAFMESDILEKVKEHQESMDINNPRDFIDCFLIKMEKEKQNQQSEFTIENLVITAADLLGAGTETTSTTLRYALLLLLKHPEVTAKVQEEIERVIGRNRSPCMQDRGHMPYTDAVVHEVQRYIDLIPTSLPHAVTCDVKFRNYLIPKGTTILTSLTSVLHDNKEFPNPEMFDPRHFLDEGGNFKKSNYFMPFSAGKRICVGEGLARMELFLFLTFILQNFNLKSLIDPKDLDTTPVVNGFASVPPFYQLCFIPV
Sequence of CYP2E1 (P05181 whole entry): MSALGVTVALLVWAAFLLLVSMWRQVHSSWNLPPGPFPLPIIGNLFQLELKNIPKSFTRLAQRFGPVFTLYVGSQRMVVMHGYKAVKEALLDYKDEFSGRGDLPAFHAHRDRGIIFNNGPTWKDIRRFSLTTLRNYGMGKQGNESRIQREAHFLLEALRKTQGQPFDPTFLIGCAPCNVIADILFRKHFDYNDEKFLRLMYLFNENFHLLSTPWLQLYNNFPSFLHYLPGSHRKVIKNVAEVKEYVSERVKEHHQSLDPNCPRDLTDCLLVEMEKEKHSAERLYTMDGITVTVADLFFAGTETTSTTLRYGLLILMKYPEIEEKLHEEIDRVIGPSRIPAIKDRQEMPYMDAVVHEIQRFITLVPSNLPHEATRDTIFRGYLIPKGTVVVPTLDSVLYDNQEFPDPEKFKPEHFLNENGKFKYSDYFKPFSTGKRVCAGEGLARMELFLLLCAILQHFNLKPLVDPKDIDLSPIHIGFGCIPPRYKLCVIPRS

As to `O=c1cc(-c2ccccc2)oc2c1ccc1ccccc12` [7,8-benzoflavone, reference compound], in data set [1] (100 μM, CYP1A1/2, 7-ethoxyresorufin (0.5 μM)), the “Relative activity (%) for control activity” value is on record as 3.8%.

By MIC is commonly meant the lowest concentration found to suppress growth. Take `C[C@]1(COc2ccc(N3CCC(Oc4ccc(OC(F)(F)F)cc4)CC3)cc2)Cn2cc([N+](=O)[O-])nc2O1` [Compound (A-R), (R)-2-methyl-6-nitro-2-{4-[4-(4-trifluoromethoxyphenoxy)piperidin-1-yl]phenoxymethyl}-2,3-dihydroimidazo[2,1-b]oxazole]: the “effect in short term action” value in data set [2] (action for 2 hours) is listed as “strong effect”. In addition, the “effect against intracellular parasitic tubercle bacillus at the lowest test dose” value in data set [2] (compound (A-R) 0.1 μg/ml compared with RFP 3 μg/ml) was “equivalent effect of the maximum concentration 3 μg/ml of RFP”. Also, in data set [2] (test substance for 2 or 4 hours, bacteria collected at 72 hours), the “Log reduction of bacterial counts compared with time 0 hour (FIG. 2), comparison among antituberculous drugs” value is recorded as “stronger effect”. In addition, the generated metabolites entry in [3], in data set [4], in [7], in data set [9], in data set [12] and in [15] was “almost no generated metabolites” in each case. Also, the activity at 1 μM in [5] amounted to 102%; in data set [6] (setting [18]), 103%; in [8] (microsomes, pH 7.4), 107%; in [10] it was 111%; in [1] (human, microsomes, pH 7.4) it was 99.8%. Also, the activity at 3 μM in data set [5] was found to be 102%; in data set [6] (setting [18]), 102%; in data set [8] (microsomes, pH 7.4), 111%; in [10] it was 109%; in data set [14], 109%. Also, the activity at 30 μM in [5] was found to be 103%; in data set [8] (microsomes, pH 7.4), 108%; in data set [10] it was 113%; in [1] (human, microsomes, pH 7.4) it was 102%. Besides, the activity at 10 μM in data set [6] (setting [18]) came out at 103%; in data set [8] (microsomes, pH 7.4), 107%; in data set [10] it was 118%; in data set [14], 113%; in data set [1] (human, microsomes, pH 7.4), 98.4%. In addition, the activity at 100 μM in data set [8] (microsomes, pH 7.4) turned out to be 108%; in data set [10], 122%; in [1] (human, microsomes, pH 7.4), 98.6%. In [11], the “therapeutic effect of intermittent administration compared with once a day administration” value was “equivalent effect”. Also, the figures for the MIC in data set [13] (line Compound (A-R) & EB) and in data set [13] (line Compound (A-R) & RFP) were 0.012 µg/mL and 0.024 µg/mL, respectively. In addition, the figures for the MIC in combination in data set [13] (setting [19]) and in data set [13] (setting [20]) were 0.003 µg/mL and 0.006 µg/mL, respectively. In addition, the “inhibitory action and stimulation action against each CYP enzyme activity” value in data set [16] is “did not exhibit inhibitory action and stimulation action”.

Regarding `CC[C@@H](CO)NCCN[C@@H](CC)CO` [EB, ethambutol, reference compound], the MIC in [13] (line Compound (A-R) & EB) came to 1.56 µg/mL. Moreover, the MIC in combination in [13] (setting [19]) was determined as 0.2 µg/mL.

Take `CO[C@H]1/C=C/O[C@@]2(C)Oc3c(C)c(O)c4c(O)c(c(/C=N/N5CCN(C)CC5)c(O)c4c3C2=O)NC(=O)/C(C)=C\C=C\[C@H](C)[C@H](O)[C@@H](C)[C@@H](O)[C@@H](C)[C@H](OC(C)=O)[C@@H]1C` [RFP, rifampicin, reference compound]: the MIC in combination in data set [13] (setting [20]) worked out at 0.05 µg/mL.

For `CCN(CC)C(=S)S` [diethyldithiocarbamine, reference compound], the “Relative activity (%) for control activity” value in data set [6] (100 μM, CYP2A6, coumarin (2 μM)) was 38.2%; in data set [17] it was 55.0%.

Consider `Cc1nc2c([nH]1)c(=O)n(C)c(=O)n2Cc1ccco1` [furafylline, reference compound], for which, in data set [1] (human, microsomes, pH 7.4), the activity at 100 μM was found to be 32.3%.

As to `O=c1c(O)c(-c2ccc(O)c(O)c2)oc2cc(O)cc(O)c12` [quercetin, reference compound], the activity at 100 μM in data set [8] (setting [21]) worked out at 30.6%.

With `Nc1ccc(S(=O)(=O)Nc2ccnn2-c2ccccc2)cc1` [sulfaphenazole, reference compound], in data set [8] (setting [21]), the activity at 100 μM turned out to be 25.5%.
